Values after ≈ are worked out from the molar mass of the structure shown.
Key:
Assay type in all cases: functional
Klebsiella oxytoca [1] = test: Antimicrobial activity against Klebsiella oxytoca expressing beta-lactamase KPC-2 by Etest
Enterobacter cloacae [2] = test: Antimicrobial activity against Enterobacter cloacae expressing beta-lactamase KPC-2 by Etest
Klebsiella pneumoniae [3] = test: Antimicrobial activity against Klebsiella pneumoniae PFGE clone C expressing beta-lactamase KPC-2 by Etest
Klebsiella pneumoniae [4] = test: Antimicrobial activity against Klebsiella pneumoniae PFGE clone F expressing beta-lactamase KPC-2 by Etest
Klebsiella pneumoniae [5] = test: Antimicrobial activity against Klebsiella pneumoniae PFGE clone A expressing beta-lactamase KPC-2 by Etest
Klebsiella pneumoniae [6] = test: Antimicrobial activity against Klebsiella pneumoniae PFGE clone B expressing beta-lactamase KPC-2 by Etest
Klebsiella pneumoniae [7] = test: Antimicrobial activity against Klebsiella pneumoniae PFGE clone D expressing beta-lactamase KPC-2 by Etest
Klebsiella pneumoniae [8] = test: Antimicrobial activity against Klebsiella pneumoniae PFGE clone E expressing beta-lactamase KPC-2 by Etest
Klebsiella pneumoniae [9] = test: Antimicrobial activity against Klebsiella pneumoniae PFGE clone B expressing beta-lactamase KPC-2 by Etest in presence of beta-lactamase inhibitor Tazobactam
Klebsiella pneumoniae [10] = test: Antimicrobial activity against Klebsiella pneumoniae PFGE clone D expressing beta-lactamase KPC-2 by Etest in presence of beta-lactamase inhibitor Tazobactam
Klebsiella pneumoniae [11] = test: Antimicrobial activity against Klebsiella pneumoniae PFGE clone E expressing beta-lactamase KPC-2 by Etest in presence of beta-lactamase inhibitor Tazobactam
Enterobacter cloacae [12] = test: Antimicrobial activity against Enterobacter cloacae expressing beta-lactamase KPC-2 by Etest in presence of beta-lactamase inhibitor Tazobactam
Klebsiella pneumoniae [13] = test: Antimicrobial activity against Klebsiella pneumoniae PFGE clone F expressing beta-lactamase KPC-2 by Etest in presence of beta-lactamase inhibitor Tazobactam
Klebsiella pneumoniae [14] = test: Antimicrobial activity against Klebsiella pneumoniae PFGE clone C expressing beta-lactamase KPC-2 by Etest in presence of beta-lactamase inhibitor Tazobactam
Klebsiella oxytoca [15] = test: Antimicrobial activity against Klebsiella oxytoca expressing beta-lactamase KPC-2 by Etest in presence of beta-lactamase inhibitor Tazobactam
Klebsiella pneumoniae [16] = test: Antimicrobial activity against Klebsiella pneumoniae PFGE clone A expressing beta-lactamase KPC-2 by Etest in presence of beta-lactamase inhibitor Tazobactam

| Compound | MIC (Klebsiella oxytoca [1]) | MIC (Enterobacter cloacae [2]) | MIC (Klebsiella pneumoniae [3]) | MIC (Klebsiella pneumoniae [4]) | MIC (Klebsiella pneumoniae [5]) | MIC (Klebsiella pneumoniae [6]) | MIC (Klebsiella pneumoniae [7]) | MIC (Klebsiella pneumoniae [8]) | MIC (Klebsiella pneumoniae [9]) | MIC (Klebsiella pneumoniae [10]) | MIC (Klebsiella pneumoniae [11]) | MIC (Enterobacter cloacae [12]) | MIC (Klebsiella pneumoniae [13]) | MIC (Klebsiella pneumoniae [14]) | MIC (Klebsiella oxytoca [15]) | MIC (Klebsiella pneumoniae [16]) |
| --- | --- | --- | --- | --- | --- | --- | --- | --- | --- | --- | --- | --- | --- | --- | --- | --- |
| C[C@@H](O)[C@H]1C(=O)N2C(C(=O)O)=C(S[C@@H]3CN[C@H](C(=O)N(C)C)C3)[C@H](C)[C@H]12 [MEROPENEM] | > 32 µg/mL | > 32 µg/mL | > 32 µg/mL | > 32 µg/mL | > 32 µg/mL | > 32 µg/mL | > 2 µg/mL | > 16 µg/mL | – | – | – | – | – | – | – | – |
| NCC[C@H](O)C(=O)N[C@@H]1C[C@H](N)[C@@H](O[C@H]2O[C@H](CN)[C@@H](O)[C@H](O)[C@H]2O)[C@H](O)[C@H]1O[C@H]1O[C@H](CO)[C@@H](O)[C@H](N)[C@H]1O [AMIKACIN] | 2 µg/mL (≈ 3.42 µM) | > 256 µg/mL | > 1 µg/mL | 2 µg/mL (≈ 3.42 µM) | > 256 µg/mL | > 1 µg/mL | > 256 µg/mL | > 1 µg/mL | – | – | – | – | – | – | – | – |
| CC(C)(O/N=C(\C(=O)N[C@@H]1C(=O)N2C(C(=O)[O-])=C(C[n+]3ccccc3)CS[C@H]12)c1csc(N)n1)C(=O)O [CEFTAZIDIME] | 128 µg/mL (≈ 234 µM) | > 256 µg/mL | > 256 µg/mL | > 256 µg/mL | > 256 µg/mL | > 128 µg/mL | > 32 µg/mL | > 32 µg/mL | – | – | – | – | – | – | – | – |
| C[C@@H](O)[C@H]1C(=O)N2C(C(=O)O)=C(S[C@@H]3CN[C@H](C(=O)Nc4cccc(C(=O)O)c4)C3)[C@H](C)[C@H]12 | > 16 µg/mL | > 32 µg/mL | > 32 µg/mL | > 32 µg/mL | > 32 µg/mL | > 32 µg/mL | > 16 µg/mL | > 32 µg/mL | – | – | – | – | – | – | – | – |
| CO[C@@]1(NC(=O)Cc2cccs2)C(=O)N2C(C(=O)O)=C(COC(N)=O)CS[C@@H]21 [CEFOXITIN] | > 256 µg/mL | > 256 µg/mL | > 128 µg/mL | > 32 µg/mL | > 256 µg/mL | > 128 µg/mL | > 64 µg/mL | 32 µg/mL (≈ 74.9 µM) | – | – | – | – | – | – | – | – |
| C[C@@H](O)[C@H]1C(=O)N2C(C(=O)O)=C(SCCNC=N)C[C@H]12 [IMIPENEM ANHYDROUS] | > 32 µg/mL | > 32 µg/mL | > 32 µg/mL | > 32 µg/mL | > 32 µg/mL | > 16 µg/mL | > 2 µg/mL | > 16 µg/mL | – | – | – | – | – | – | – | – |
| CN(C)c1cc(NC(=O)CNC(C)(C)C)c(O)c2c1C[C@H]1C[C@H]3[C@H](N(C)C)C(O)=C(C(N)=O)C(=O)[C@@]3(O)C(O)=C1C2=O [TIGECYCLINE] | 2 µg/mL (≈ 3.41 µM) | 2 µg/mL (≈ 3.41 µM) | 0.5 µg/mL (≈ 0.854 µM) | 0.38 µg/mL (≈ 0.649 µM) | 2 µg/mL (≈ 3.41 µM) | 0.5 µg/mL (≈ 0.854 µM) | 0.5 µg/mL (≈ 0.854 µM) | 1 µg/mL (≈ 1.71 µM) | – | – | – | – | – | – | – | – |
| COLISTIN | 1 µg/mL | 0.5 µg/mL | 0.5 µg/mL | 0.5 µg/mL | 0.25 µg/mL | 0.5 µg/mL | 0.5 µg/mL | 0.5 µg/mL | – | – | – | – | – | – | – | – |
| CCN1CCN(C(=O)N[C@@H](C(=O)N[C@@H]2C(=O)N3[C@@H]2SC(C)(C)[C@@H]3C(=O)O)c2ccccc2)C(=O)C1=O [PIPERACILLIN] | – | – | – | – | – | – | – | – | > 256 µg/mL | > 256 µg/mL | > 256 µg/mL | > 256 µg/mL | > 256 µg/mL | > 256 µg/mL | > 256 µg/mL | > 256 µg/mL |

Source: ChEMBL document CHEMBL1649221, “Novel genetic environment of the carbapenem-hydrolyzing beta-lactamase KPC-2 among Enterobacteriaceae in China” (2009)
